Earlier results, collected in patent US20040043073A1, “Pharmaceutical compositions for drugs having pH-dependent solubility” (priority 2002, published 2004).
Where two headings read alike, the source gives them in different places.

solubility (in the stomach (pH 1.2)): very soluble
solubility (lower small intestine (pH 6 to 8)): solubility decreases
solubility (upper region of the small intestine (pH 5.0)): fairly soluble
Structure (SMILES): CC[C@H]1OC(=O)[C@H](C)[C@@H](O[C@H]2C[C@@](C)(OC)[C@@H](O)[C@H](C)O2)[C@H](C)[C@@H](O[C@@H]2O[C@H](C)C[C@H](N(C)C)[C@H]2O)[C@](C)(OC)C[C@@H](C)C(=O)[C@H](C)[C@@H](O)[C@]1(C)O [clarithromycin, 6-O-methylerythromycin A]
